Test results from patent US20260027073A1, “USE OF SMALL-MOLECULE COMPOUND HAVING NAPHTHYLAMINE STRUCTURE” (HANGZHOU PHECDAMED CO., LTD., priority 2023, published 2026).

Tests used:
[1] = test system: Androgen-induced benign prostatic hyperplasia in rats; test: Androgen-induced benign prostatic hyperplasia; assay type: in vivo, SD rats; conditions: TJ01-013 30 mg/kg, Finasteride 10 mg/kg
Experimental: Androgen-induced benign prostatic hyperplasia in rats has been used in many research fields. The specific model was constructed as follows: 180 g-200 g male SD rats were given 30 mg/kg androgen intramuscularly every other day, and 15 consecutive androgen injections were given for modeling, and the experiments were divided into […], a negative control group (Sham), a model control group (Control), TJ01-013 treatment group (TJ01-013, 30 mg/kg), Finasteride treatment group (Finasteride, 10 mg/kg), and TJ01-013+Finasteride treatment group (13+F). The drug was administered at the same time as the androgen modeling, the mode of administration was by oral gavage, the volume of the administration was 10 ml/kg, the frequency of administration was daily, and the administration was ended on the 30th day, the rats were weighed and euthanized, and the prostate and urethra of the rats were taken and weighed, and the organ coefficients (weight of the prostate gland/weight of the rats) were finally calculated.

[2] = test system: CUMS animal model of depression; test: CUMS depression model behavioral tests; assay type: in vivo, C57BL/6J mice; conditions: Fluoxetine 30 mg/kg
Description: Depression, also known as depressive disorder, is characterized by significant and long-lasting depressed state of mind as the main clinical feature. The CUMS animal model of depression is a chronic unpredictable animal stress model, which simulates part of the stressor, the external material environmental stimulus, and will cause dysfunctions in the animal organism through different stress stimuli, leading to occurrence of the psychiatric disease depression. […] During this period, carefully observing the status of each mouse. • (6) Basket shaking: Placing the mice in an empty basket and shaking the basket drastically, with the criterion that the mice in the basket are unable to stand firm and sway with the shaking of the basket, for 1 hour. • (7) Olfactory stimulation: Placing anise and other spices in the mice's baskets as a means of olfactory stimulation.
The above seven experiments were conducted randomly during a week as a way to achieve unpredictability with 4 weeks of continuous stimulation.
At the end of the modeling, an open field test experiment was conducted to screen the modeled animals and group the successful modeled animals into five groups: normal group (Control), model control group (Model), positive drug treatment group (Fluoxetine), TJ0113 10 mg/kg treatment group (10 mg/kg), […], TJ0113 30 mg/kg treatment group (30 mg/kg). There were 10 mice in each group, and the administration treatment was administered by gavage, the normal and model control groups were given vehicle treatment, the vehicle was 0.5% CMC-Na, the positive drug fluoxetine hydrochloride was solubilized in saline and administered at a dose of 30 mg/kg, and the TJ0113 vehicle was 0.5% CMC-Na, and administered at a dose of 10 mg/kg and 30 mg/kg, respectively. 4 weeks after the end of the administration, behavioral tests were performed.
• (1) Adaptive feeding: Adaptive feeding with 1% sucrose water and plain water for 2 d before the start of the test, at 1 d, interchanging the sugar water and plain water to avoid positional differences for the animals, and fasting food and water for 1 d after adaption; • (2) Formal test: after fasting food and water, 1% sucrose water and plain water were given to the animals (the initial mass of sugar water and plain water is known), and weighing the remaining mass of sugar water/plain water of each animal after 24 h, and calculating the consumption rates of sugar water A and plain water B; • (3) Data analysis: sugar water preference rate=(A/A+B)×100%.
• (1) adapting to the environment: placing the animals in the test environment for 60 min to adapt to the environment before the test; • (2) Formal test: fixing the rear 1/3 of the mouse tail with tape and suspending on the stand of the experimental apparatus, with the head 15 cm from the bottom; • (3) starting timing camera, and stopping after 6 min, and recording the immobility time of the mice within 4 min; • (4) At the end of the test, using 75% alcohol to wipe the bottom and inner wall of the chamber.
• (1) adapting to the environment: placing the animals in the test environment for 60 min to adapt to the environment before the test; • (2) Formal test: placing the animals to be tested in the middle of the open field, and using the ANY-Maze software to collect the data, the test time is 10 min, and the feces and urine must be removed at the end of each round and disinfected and wiped dry with 75% alcohol; • (3) Analysis of results: total moved distance and average speed during the activity, time spent in the center area and time spent in the corner area.

[3] = In vitro liver microsomal stability test; conditions: microsomes
Experimental: Ketanserin was selected as the reference compound. The specific method was as follows:
0.1 M K3PO4 (pH 7.4) buffer and 3×NADPH stock solution (6 mM, 5 mg/mL) were configured and preheated in a 37° C. water bath; configuration of the test compounds and the control compounds (spiking solution): adding 5 μL of the compound stock solution ([…]) into 95 μL of acetonitrile; configuration of 1.5 μM spiking solution in microsomes (0.75 mg/mL): adding 1.5 μL of spiking solution and 18.75 μL of liver microsomal solution (20 mg/mL) into 479.75 μL of K3PO4 buffer; adding 30 μL of spiking solution in microsomes into the multiwell plate, and incubating at 37° C. for 5 min; adding 15 μL of NADPH storage solution into each well to start to react, and timing; adding 150 μL of acetonitrile solution containing IS at 0 min, 5 min, 15 min, 30 min, and 45 min, respectively, stopping the reaction; oscillating for 10 min, and then centrifuging at 6,000 rpm for 15 min; taking 80 μL of supernatant from each well for LC/MS detection, and calculating T1/2.

HGPS-MSC = test: Senescence of HGPS patient derived mesenchymal stem cells; assay type: cell-based, human; conditions: 10 μM
Experimental: Mesenchymal stem cells HGPS-MSC differentiated from pluripotent stem cells (iPSC) of patients with Hutchinson-Gilford Progeria Syndrome (HGPS) were taken for culture, and the experiment was divided into three groups, namely, young cells cultured for 7 generations, labeled as Con-Y; senescent cells cultured for 12 generations, labeled as Con-O; and the administration group to which 10 μM of TJ01-013 was added during the process of culture, similarly cultured up to the 12th generation, labeled as Con-O+TJ01-013; the drug administration group to which 10 μM positive drug Ionafarnib was added during the process of culture, similarly cultured up to the 12th generation, and labeled as Con-O+ Ionafarnib; after the end of the treatment, all the cells were placed under the microscope to observe the morphology of the cells, and the proportion of SA-β-gal+ cells was counted. The levels of DNA damage marker γ-H2AX and heterochromatin modification H3K9me3 after TJ01-013 treatment and Ionafarnib treatment were detected by immunofluorescence technique (the specific procedure was described previously).

[4] = test system: LPS-induced acute lung injury mice; test: LPS-induced acute lung injury; assay type: in vivo, C57BL/6J mice
Experimental: Male mice C57BL/6J aged 6-8 weeks and weighing 18-22 g were selected for the study. After fixing the mice, 50 μl of PBS was injected into the airways of the mice under direct laryngoscopic vision to form a control group, and 5 mg/kg of LPS (E.coil) was dissolved in 50 μl of PBS and dripped to form a model group. The experiments were divided into […], each having 6 mice, namely, NS group (control group, airway drip of 50 μl PBS), LPS group (model control group, airway drip of 50 μl LPS), LPS+10 mg/kg group (airway drip of 50 μl LPS and given 10 mg/kg TJ01-013 treatment), LPS+20 mg/kg group (airway drip of 50 μl LPS and given 20 mg/kg TJ01-013 treatment), LPS+30 mg/kg group (airway drip of 50 μl LPS and given 30 mg/kg TJ01-013 treatment), LPS+Sivelestat group (Positive control group, airway drip of 50 μl LPS and given 5 mg/kg Sivelestat treatment). All groups were administered […] by intraperitoneal injection in a volume of 200 μl 1 h and 7 h after airway drip, and the mice were euthanized 24 h later, bronchoalveolar lavage fluid (BALF) was taken, and the levels of inflammatory factors in the bronchoalveolar lavage fluid were detected and the changes in the transcriptional levels of tissue-associated inflammatory factors were observed. • (2) taking and observing of Bronchoalveolar lavage fluid (BALF)
Use chloral hydrate intraperitoneal injection to make mice die of rapid overdose anesthesia, place mice in supine position on the dissection table, fix the limbs, disinfect the skin of the neck of the mice with 75% ethanol, incise the skin along the midline of the neck, bluntly separate the subcutaneous connective tissues and muscles with hemostatic forceps, expose the trachea, separate connective tissues on both sides of the trachea and between the trachea and the esophagus, and free the trachea. Two surgical sutures about 20 cm long were threaded between the trachea and esophagus. A 24G intravenous cannula needle was inserted at a 30-degree angle from the connective tissue membrane between the thyroid cartilage and the cricoid cartilage, and the intravenous cannula needle was delivered in the direction of the tracheal eminence. A surgical suture placed between the tracheo-esophageal was ligated at the entry of the cannula into the trachea and at the distal end of the cannula, respectively, and tied as tightly as possible to secure the cannula and trachea. 0.8 ml of PBS was aspirated with a 1 ml syringe, and the syringe was connected to the inlet end of the intravenous cannula needle, and PBS was slowly injected into the trachea, stayed for 30 seconds and then was withdrawn back, and a milky white frothy liquid withdrawn back was visible, and the lavage was repeated three times, and the liquid was centrifuged at 1500 rpm/min for 10 min, and the supernatant was used for cytokine assay, and the cell precipitates were coated after resuspending with PBS for Giemsa staining and sorting and counting.
The levels of inflammatory factors (inflammatory factors including IL-6, CXCL1, CXCL2, etc.) in BALF supernatant were detected according to the instructions of the ELISA test kit.
The obtained cDNA was amplified on a 96-well PCR plate using a LightCycler 480 system, and the gene level was determined by using glyceraldehyde 3-phosphate dehydrogenase (GAPDH) as an internal standard.

[5] = test system: LPS-induced sepsis in mice; test: LPS-induced sepsis survival; assay type: in vivo, C57 mice; conditions: 8th day; 10 mg/kg intraperitoneal once a day; LPS alone about 20%; FIG. 33
Experimental: A constructed preclinical sepsis model is a LPS-induced sepsis in mice. Injection of purified LPS into mice by intraperitoneal route or intravenous route can lead to activation of the innate immune system and simulate fulminant Gram-negative bacterial infections, the specific modeling method is as follows: 20-25 g C57 mice were selected, and 20 mg/kg LPS was injected intraperitoneally according to the body weight (the LPS was dissolved with PBS), and the experiment was divided into three groups, a model control group (LPS), a positive control treatment group (prednisone, 10 mg/kg), TJ01-013 treatment group (TJ01-013, 10 mg/kg), the mode of administration was intraperitoneal injection, the volume of administration was 5 ml/kg, the frequency of administration was once a day, and the biological deaths and changes in body weights of the mice were observed and recorded every day, and the mice were regarded as physiologically dead if their body weights decreased by 20% or more compared with that before the administration of LPS. Survival curves were plotted based on deaths observed up to 8 days after administration.

[6] = TJ01-013 10, 20, 30 mg/kg, Sivelestat 5 mg/kg, FIG. 26
[7] = concentration-dependent for TJ01-013, FIG. 27

SMILES: CC(C)(C)NC(=O)[C@H]1CC[C@H]2[C@@H]3CC[C@H]4NC(=O)C=C[C@]4(C)[C@H]3CC[C@]12C [Finasteride]
- prostate weight ([1]; oral gavage daily to day 30, FIG. 34): reduced
- organ coefficient of prostate ([1]; oral gavage daily, FIG. 35): reduced the organ coefficient of prostate, but there was no significant difference
- weight of urethra and bladder ([1]; oral gavage daily, FIG. 36): tendency of decreasing its weight

SMILES: CNCCC(Oc1ccc(C(F)(F)F)cc1)c1ccccc1 (stereo not shown) [Fluoxetine, reference compound]
- average movement speed, open field ([2]; TJ0113 10 mg/kg and 30 mg/kg, FIG. 61): significantly increased
- sugar water preference ([2]; TJ0113 30 mg/kg, gavage, FIG. 57): significantly increased
- time in despair (immobility), tail-hanging experiment ([2]; TJ0113 30 mg/kg, FIG. 58): significantly decreased
- distance moved, open field ([2]; TJ0113 30 mg/kg, FIG. 59): significantly increased
- time in the edge area of the open field ([2]; TJ0113 30 mg/kg, FIG. 60): significantly decreased

SMILES: CN(c1cc([S+]([O-])CC(=O)O)c(O)c2ccccc12)S(=O)(=O)c1ccc(Br)cc1 (stereo not shown) [I-2]
- liver microsomal stability (elimination half-life T1/2) [3]: superior liver microsomal stability

SMILES: NC(=O)N1CCC(CC(=O)N2CCC([C@H]3c4ncc(Br)cc4CCc4cc(Cl)cc(Br)c43)CC2)CC1 [Ionafarnib, reference compound]
- percentage of SA-β-gal+ cells (HGPS-MSC; 12th generation, vs Con-O, FIG. 54): significantly decreased
- level of DNA damage marker γ-H2AX (HGPS-MSC; FIG. 55): significantly reduced
- expression level of heterochromatin-modified H3K9me3 (HGPS-MSC; FIG. 56): restored its expression level to some extent

SMILES: CC(C)(C)C(=O)Oc1ccc(S(=O)(=O)Nc2ccccc2C(=O)NCC(=O)O)cc1 [Sivelestat, reference compound]
- CXCL1 level in alveolar lavage fluid (ELISA) [4, 6]: significantly decreased
- CXCL2 level in alveolar lavage fluid (ELISA) [4, 6]: no significant effect
- IL-6 level in alveolar lavage fluid (ELISA) [4, 6]: no significant effect
- CXCL1 transcript level in lung tissue [4, 7]: significantly decreased
- CXCL2 transcript level in lung tissue [4, 7]: no significant effect
- IL-6 transcript level in lung tissue [4, 7]: no significant effect

SMILES: C[C@]12C=CC(=O)C=C1CC[C@@H]1[C@@H]2C(=O)C[C@@]2(C)[C@H]1CC[C@]2(O)C(=O)CO [prednisone, reference compound]
- survival rate [5]: 100%
